Experimental data as given in US20240285599A1, “Mature-Hepatocyte Transdifferentiation Suppressing Composition” (OSAKA UNIVERSITY, priority 2021, published 2024).

How the values were obtained:
[1] = system: TRAF3/PTEN knockdown HepG2 cell; test: KRT19 mRNA quantification and immunoblotting (P52) in TRAF3/PTEN knockdown HepG2; type: cell-based, human; details: HepG2 (PTKD #1); for increase in expression of P52 by knockdown of TRAF3 and PTEN: western blot
Description: (§1) The transfection of siRNA or a plasmid into cells was performed with Lipofectamine RNAiMAX Transfection Reagent (Thermo Fisher Scientific, Inc., USA) or Lipofectamine 2000 (Thermo Fisher Scientific, Inc., USA), respectively, and with Opti-MEM (Thermo Fisher Scientific, Inc., USA). The transfection of the siRNA was performed as follows: the cells were dispersed at a concentration of 100,000 cells/mL; 10 μM of the siRNA was mixed into 100 μL of the Opti-MEM at a ratio of 1 μL, and the mixture was left at rest for 5 minutes; and then 3 μL of the RNAiMAX was mixed into the mixture, and the whole was left at rest for 15 minutes, followed by administration to the supernatant of the previously dispersed cells. Further, a medium change was performed 24 hours thereafter.
A procedure for western blotting is as described in the previous report (Tanaka S, et al. Hepatology. 2016; 64(6): 1994-2014). The protein extracts of cells and animal tissues were prepared by using a lysis buffer having added thereto a protease inhibitor (Nacalai Tesque, Inc., Japan) and a phosphatase inhibitor (Nacalai Tesque, Inc., Japan). In western blotting for the detection of NIK, MG-132 (ChemScene, USA) was administered at a concentration of 5 μM 4 hours before protein recovery. The following antibodies were used in immunodetection: TRAF3 (1:1,000 Cell Signaling, #4729), PTEN (1:1,000 Cell Signaling, #9188), KRT19 (1:50,000 Abcam, #ab52625), p100/p52 (1:1,000 Cell Signaling, #4882), NIK (1:1,000 Cell Signaling, #4994), and β-actin (1:10,000 Sigma-Aldrich Co., LLC, #A5316). Anti-mouse IgG, HRP-linked whole Ab sheep (Cytiva, Japan), or anti-rabbit IgG, HRP-linked whole Ab donkey (Cytiva, Japan) was used as a secondary antibody, and luminescence analysis was performed with SuperSignal (trademark) West Pico PLUS Chemiluminescent Substrate (Thermo Fisher Scientific, Inc., USA).
Total RNA was extracted from a cell line and a human liver tissue with RNeasy Mini Kit (QIAGEN N.V., Nederland). Then, 1 μg of the total RNA was reverse-transcribed with ReverTra Ace qPCR RT Kit (Toyobo Co., Ltd., Tokyo) to synthesize complementary DNA. The mRNA expression of each of the following genes was analyzed through use of a TaqMan gene expression assay: human GAPDH (Hs02758991), human TRAF3 (Hs00936781), human PTEN (Hs02621230), human KRT19 (Hs00761767), human NIK (Hs01089753), mouse Gapdh (Mm09999915), mouse Traf3 (Mm00495752), mouse Pten (Mm00477208), mouse Krt19 (Mm00492980), mouse NIK (Mm00444166), and mouse Alb (Mm00802090). The gene expression amount of a human and the gene expression amount of a mouse were normalized to the expression amount of GAPDH.
The effect of TRAF3/PTEN inhibition on the expression of a bile duct marker in each of a primary human hepatocyte (hereinafter also referred to as “PHH”) and a human hepatoma cell line HepG2 cell (hereinafter also referred to as “HepG2”) was evaluated. The PHH and the HepG2 are each a mature hepatocyte having an albumin-producing ability. The TRAF3 and PTEN of each of the HepG2 and the PHH were knocked down with siRNA. The term “[…]” means a HepG2 or a PHH having introduced thereinto siRNA Traf3 #2 and Pten #1 (hereinafter also referred to as “PTKD #1HepG2” and “PTKD #1PHH” respectively). The term “PTKD #2” means a HepG2 or a PHH having introduced thereinto the siRNA Traf3 #2 and Pten #3 (hereinafter also referred to as “PTKD #2HepG2” and “PTKD #2PHH” respectively). All the siRNAs were obtained from Thermo Fisher Scientific, Inc. The sequence of each of the siRNAs is described below.
Specifically, 24 hours after the start of the culture of each of the PTKD #1HepG2 and the PTKD #1PHH obtained in Test Example 5, NIKSMI described above was added at a concentration of 9 μM. 48 Hours after that, the cells were recovered, and the mRNA of KRT19 was quantified, followed by immunoblotting. […]

[2] = system: human cholangiocarcinoma cell line KKU213; test: Cell proliferation assay (IncuCyte) of cholangiocarcinoma cell line KKU213; type: cell-based
Description: A human hepatoma cell line HepG2, and human cholangiocarcinoma cell lines HuCCT1, HuCCA1, and KKU213 were obtained from the JCRB Cell Bank. The HepG2 and KKU213 cells were cultured in a Dulbecco's modified Eagle's medium (DMEM; Nacalai Tesque, Inc., Japan) having added thereto 10% heat-inactivated fetal calf serum (FCS; Gibco, USA). The HuCCT1 cells were cultured in an RPMI medium (Nacalai Tesque, Inc., Japan) containing 10% FCS. The HuCCA1 cells were cultured in D-MEM/Ham's F-12 (containing L-glutamine and phenol red) (Wako Pure Chemical Industries, Ltd., Japan) having added thereto 10% FCS. All the cells were cultured with a CO2 incubator at 37° C. The cells were detached with trypsin (Nacalai Tesque, Inc., Japan), and were passaged. Those cells were routinely examined for mycoplasma.
as §1
Hepatocytes or cholangiocarcinoma cells were inoculated on a 96-well plate, and their cell proliferation was analyzed with IncuCyte (trademark) Si (Sartorius AG, Germany) in accordance with the manufacturer's instructions.
Two kinds of NIK siRNA (the NIK KD #1 and the NIK KD #2) were introduced into each of human cholangiocarcinoma cell lines HuCCT1, HuCCA1, and KKU213 to knock down MAP3K14 (NIK). […]

[3] = NIK siRNA transfected, 72 h, FIG. 13
[4] = NIK siRNA transfected, cells recovered after 72 h culture, FIG. 13

NIK KD #2: siRNA of NIK, SEQ ID NO: 4 (sense) and 5 (antisense), from Thermo Fisher Scientific (sense GCAAAGAGCAAGAACCAAAUU; antisense UUUGGUUCUUGCUCUUUGCGU; listed as RNA, chemistry not given here)
significantly suppressed: increase in expression of P52 by knockdown of TRAF3 and PTEN [1, 3] | increase in expression of KRT19 by knockdown of TRAF3 and PTEN [1, 4] | proliferation of cholangiocarcinoma cells ([2]; NIK siRNA introduced, FIG. 20)

COc1cc(C(N)=O)nc(-c2cccc(C#C[C@]3(O)CCN(C)C3=O)c2)c1 [NIKSMI, (R)-6-(3-((3-hydroxy-1-methyl-2-oxopyrrolidin-3-yl)ethynyl)phenyl)-4-methoxypicolinamide]
significantly suppressed: increase in expression of KRT19 by knockdown of TRAF3 and PTEN ([1]; NIKSMI 9 μM added 24 h after start of culture, cells recovered 48 h later, FIG. 11) | increase in expression of P52 by knockdown of TRAF3 and PTEN ([1]; NIKSMI 9 μM, 48 h, FIG. 11) | proliferation of cholangiocarcinoma cells ([2]; 9 μM or 15 μM added at beginning of culture, FIG. 21C)

NIK KD #1: siRNA of NIK, SEQ ID NO: 2 (sense) and 3 (antisense), from Thermo Fisher Scientific (sense CAAACGCAAAGAGCAAGAAUU; antisense UUCUUGCUCUUUGCGUUUGCA; listed as RNA, chemistry not given here)
significantly suppressed: increase in expression of P52 by knockdown of TRAF3 and PTEN [1, 3] | increase in expression of KRT19 by knockdown of TRAF3 and PTEN [1, 4] | proliferation of cholangiocarcinoma cells ([2]; NIK siRNA introduced, FIG. 20)
